Results as given in US11952374B2, “Bicyclic compounds” (Aligos Therapeutics, Inc., priority 2020, dated 2024).
Where two headings read alike, the source gives them in different places.

How the values were obtained:
HBV = experiment: HBV-DNA antiviral assay using HepG2.117 cells (intracellular HBV DNA by qPCR); assay type: cell-based, HBV genotype D
Protocol: (§1) The following assay procedure describes the HBV antiviral assay, using HepG2.117 cells, which carry a stably integrated genotype D HBV genome under the control of a Tet-off promoter, and intracellular HBV DNA quantification as endpoint. Cell viability is assessed in parallel by measuring the intracellular ATP content using CellTiter-Glo 2.0 (Promega).
On day 0, HepG2.117 cells (which are maintained in routine cell culture with doxycycline present in the medium at a final concentration of 1 μg/mL) are seeded in 96-well plates (white with clear bottom) at a density of 2.0×10^4 cells/well (0.1 mL/well) in medium without doxycycline to induce pgRNA transcription and subsequent formation of HBV particles. The cells are incubated at 37° C. and 5% CO2.
(§2) On day 1, medium is removed from each well, the test articles are diluted in culture medium without doxcycyline and 100 μL was added to cell culture wells (9 concentrations, 4-fold dilution). For each plate, 6 untreated (merely DMSO) wells are included. The final concentration of DMSO in the culture medium is 2%. Each plate is prepared in duplicate (one for HBV DNA extraction, one for CellTiter-Glo 2.0 measurement). The cells are incubated at 37° C. and 5% CO2 for 3 days.
(§3) On day 4, cell viability is assessed using CellTiter-Glo 2.0 and cell lysates are prepared for HBV DNA extraction and subsequent quantification by qPCR.
Medium is removed from each well and 100 μL of 0.33% NP-40 in H2O was added to each well. Plates are sealed, incubated at 4° C. for 5 mins, vortexed extensively and centrifuged briefly. Next, 35 μL of lysate is added to 65 μL QuickExtract DNA Extraction Solution (Epicentre) in a PCR plate for each well. PCR plate is incubated at 65° C. for 6 mins, 98° C. for 2 mins and finally cooled to 4° C. HBV DNA is then quantified by qPCR with HBV-specific primers and probes as specified in Table 2 using the Bio-Rad SSOAdvanced Universal Probes Supermix on a CFX96 machine (Bio-Rad). The PCR cycle program consisted of 95° C. for 3 mins, followed by 40 cycles at 95° C. for 10 sec and 60° C. for 30 sec.
A DNA standard is prepared by dilution of an IDT gBlock corresponding to the amplicon with concentrations ranging from 10^A2 to 10^A8 copies/input (i.e. per 4 μL) and used to generate a standard curve by plotting Cq values vs. HBV DNA standard concentration. The quantity of HBV DNA in each sample is determined by interpolating from the standard curve.
(§4) Cell viability is calculated as follows: % Cell viability=(luminescence value of test sample)/(average luminescence value of 2% DMSO control)×100%. HBV DNA inhibition was calculated as follows: 100−(HBV DNA copy number of test sample)/(average HBV DNA copy number of 2% DMSO control)×100%. No normalization to entecavir is required due to the excellent dynamic window of this assay. The CC50, EC50 and EC90 values were determined by dose-response curves fitted using non-linear regression.

[1] = Cell viability by CellTiter-Glo 2.0 (intracellular ATP) in HepG2.117 cells; assay type: cell-based; conditions: human, CellTiter-Glo 2.0, 3 days incubation
Protocol: as §1, §2, §3
(§5) Using the other plates, the cell viability is quantified by CellTiter-Glo 2.0 according to the manufacturer's manual. In brief, 100 μL of reagent solution is added to the culture plates and shaken for 2′. The plates are incubated at room temperature for 10 min and luminescence signal is subsequently measured on a VarioSkan Lux (ThermoFisher) plate reader.
as §4

HepG2.117 cells = experiment: as above; assay type: cell-based; conditions: CellTiter-Glo 2.0, 3 days incubation
Protocol: as §1, §2, §3, §5, §4

[2] = Hepatitis B virus, 72 h, HBV DNA inhibition, HepG2.117 cells, 3 days incubation, read-out: EC50
[3] = HBV DNA inhibition, HepG2.117 cells, 3 days incubation, read-out: EC50
[4] = Hepatitis B virus, HepG2.117, 72 h

Q: With CNC(=O)c1ccc(-n2c(NCc3ccccc3-c3ccccn3)nc3c(c2=O)C[C@@H](C)N(C(=O)c2ccc(Br)c(C(F)(F)F)c2)C3)c(Cl)c1 (single isomer, unassigned) [Compound 1a] as the compound, how does the EC50 (HBV; [2]) read?
A: < 0.05 µM

Q: What about the CC50 at 3 days [1] of the same compound?
A: > 50 µM

Q: For CNC(=O)c1ccc(-n2c(NCc3ccccc3-c3ccccn3)nc3c(c2=O)C[C@@H](C)N(C(=O)c2ccc(Br)c(C(F)(F)F)c2)C3)c(Cl)c1 (single isomer, unassigned) [Compound 1b], which EC50 (HBV; [3]) is on record?
A: < 0.05 µM

Q: And the CC50 (HepG2.117 cells)?
A: > 50 µM

Q: What does the source list for CNC(=O)c1ccc(-n2c([C@@H]3CCCN3C(C)C)nc3c(c2=O)CC(C)N(C(=O)c2ccc(Br)c(C(F)(F)F)c2)C3)cc1 (single isomer, unassigned) [Compound 11a]?
A: EC50 (HBV; [2]): 0.5 to 5 µM; CC50 at 3 days [1]: > 50 µM

Q: For CNC(=O)c1ccc(-n2c([C@@H]3CCCN3C(C)C)nc3c(c2=O)CC(C)N(C(=O)c2ccc(Br)c(C(F)(F)F)c2)C3)cc1 (single isomer, unassigned) [Compound 11b], which EC50 (HBV; [3]) is on record?
A: 0.5 to 5 µM

Q: What about the CC50 (HepG2.117 cells) of the same compound?
A: > 50 µM

Q: Which EC50 (HBV; [2]) does the source give for CNC(=O)c1ccc(-n2c(-n3ccc(C(C)C)n3)nc3c(c2=O)C[C@@H](C)N(C(=O)c2ccc(Br)c(C(F)(F)F)c2)C3)cc1 [Compound 2, (R)-4-(7-(4-bromo-3-(trifluoromethyl)benzoyl)-2-(3-isopropyl-1H-pyrazol-1-yl)-6-methyl-4-oxo-5,6,7,8-tetrahydropyrido[3,4-d]pyrimidin-3(4H)-yl)-N-methylbenzamide] here?
A: < 0.05 µM

Q: And the CC50 at 3 days [1]?
A: > 50 µM

Q: For CNC(=O)c1ccc(-n2c(N(Cc3ccccc3)C3CC(F)(F)C3)nc3c(c2=O)C[C@@H](C)N(C(=O)c2ccc(Br)c(C(F)(F)F)c2)C3)cc1 [Compound 3, (R)-4-(2-(benzyl(3,3-difluorocyclobutyl)amino)-7-(4-bromo-3-(trifluoromethyl)benzoyl)-6-methyl-4-oxo-5,6,7,8-tetrahydropyrido[3,4-d]pyrimidin-3(4H)-yl)-N-methylbenzamide], which EC50 (HBV; [2]) is on record?
A: < 0.05 µM

Q: What about the CC50 at 3 days [1] of the same compound?
A: > 50 µM

Q: Which EC50 (HBV; [2]) does the source give for CNC(=O)c1ccc(-n2c(N(Cc3ccccc3)CC3CC3)nc3c(c2=O)C[C@@H](C)N(C(=O)c2ccc(Br)c(C(F)(F)F)c2)C3)cc1 [Compound 4, (R)-4-(2-(benzyl(cyclopropylmethyl)amino)-7-(4-bromo-3-(trifluoromethyl)benzoyl)-6-methyl-4-oxo-5,6,7,8-tetrahydropyrido[3,4-d]pyrimidin-3(4H)-yl)-N-methylbenzamide] here?
A: < 0.05 µM

Q: What about the CC50 at 3 days [1] of the same compound?
A: > 50 µM

Q: Which EC50 (HBV; [4]) does the source give for CNC(=O)c1ccc(-n2c(N(Cc3ccccc3)C3CCC3)nc3c(c2=O)C[C@@H](C)N(C(=O)c2ccc(Br)c(C(F)(F)F)c2)C3)cc1 [Compound 5, (R)-4-(2-(benzyl(cyclobutyl)amino)-7-(4-bromo-3-(trifluoromethyl)benzoyl)-6-methyl-4-oxo-5,6,7,8-tetrahydropyrido[3,4-d]pyrimidin-3(4H)-yl)-N-methylbenzamide] here?
A: < 0.05 µM

Q: What about the CC50 at 3 days [1] of the same compound?
A: > 0.5 µM

Q: Which EC50 (HBV; [2]) does the source give for CNC(=O)c1ccc(-n2c(-n3cccn3)nc3c(c2=O)C[C@@H](C)N(C(=O)c2ccc(Br)c(C(F)(F)F)c2)C3)cc1 [Compound 6, (R)-4-(7-(4-bromo-3-(trifluoromethyl)benzoyl)-6-methyl-4-oxo-2-(1H-pyrazol-1-yl)-5,6,7,8-tetrahydropyrido[3,4-d]pyrimidin-3(4H)-yl)-N-methylbenzamide] here?
A: < 0.05 µM

Q: And the CC50 at 3 days [1]?
A: > 50 µM

Q: With COc1ccc(-n2c(-c3ccccc3)nc3c(c2=O)CCN(C(=O)c2ccc(Br)c(C(F)(F)F)c2)C3)cc1 [Compound 7, 7-(4-bromo-3-(trifluoromethyl)benzoyl)-3-(4-methoxyphenyl)-2-phenyl-5,6,7,8-tetrahydropyrido[3,4-d]pyrimidin-4(3H)-one] as the compound, how does the EC50 (HBV; [4]) read?
A: 0.5 to 5 µM

Q: What about the CC50 at 3 days [1] of the same compound?
A: > 0.5 µM

Q: For CNC(=O)c1ccc(-n2c(-c3cccc(C(C)C)n3)nc3c(c2=O)C[C@@H](C)N(C(=O)c2ccc(Br)c(C(F)(F)F)c2)C3)cc1 [Compound 8, (R)-4-(7-(4-bromo-3-(trifluoromethyl)benzoyl)-2-(6-isopropylpyridin-2-yl)-6-methyl-4-oxo-5,6,7,8-tetrahydropyrido[3,4-d]pyrimidin-3(4H)-yl)-N-methylbenzamide], which EC50 (HBV; [2]) is on record?
A: < 0.05 µM

Q: What about the CC50 at 3 days [1] of the same compound?
A: 30 µM

Q: Which EC50 (HBV; [2]) does the source give for CNC(=O)c1ccc(-n2c(-n3cc(C4CC4)cn3)nc3c(c2=O)C[C@@H](C)N(C(=O)c2ccc(Br)c(C(F)(F)F)c2)C3)cc1 [Compound 9, (R)-4-(7-(4-bromo-3-(trifluoromethyl)benzoyl)-2-(4-cyclopropyl-1H-pyrazol-1-yl)-6-methyl-4-oxo-5,6,7,8-tetrahydropyrido[3,4-d]pyrimidin-3(4H)-yl)-N-methylbenzamide] here?
A: 0.05 to 0.5 µM

Q: What about the CC50 at 3 days [1] of the same compound?
A: 27.8 µM

Q: With CNC(=O)c1ccc(-n2c(-n3ccc(C4CC4)n3)nc3c(c2=O)C[C@@H](C)N(C(=O)c2ccc(Br)c(C(F)(F)F)c2)C3)cc1 [Compound 10, (R)-4-(7-(4-bromo-3-(trifluoromethyl)benzoyl)-2-(3-cyclopropyl-1H-pyrazol-1-yl)-6-methyl-4-oxo-5,6,7,8-tetrahydropyrido[3,4-d]pyrimidin-3(4H)-yl)-N-methylbenzamide] as the compound, how does the EC50 (HBV; [2]) read?
A: < 0.05 µM

Q: What about the CC50 at 3 days [1] of the same compound?
A: > 50 µM

Q: Which results are given for CNC(=O)c1ccc(-n2c(N(CC3CC3)c3ccccc3)nc3c(c2=O)C[C@@H](C)N(C(=O)c2ccc(Br)c(C(F)(F)F)c2)C3)cc1 [Compound 12, (R)-4-(7-(4-bromo-3-(trifluoromethyl)benzoyl)-2-((cyclopropylmethyl)(phenyl)amino)-6-methyl-4-oxo-5,6,7,8-tetrahydropyrido[3,4-d]pyrimidin-3(4H)-yl)-N-methylbenzamide]?
A: EC50 (HBV; [2]): < 0.05 µM; CC50 at 3 days [1]: 10.8 µM

Q: Which EC50 (HBV; [2]) does the source give for CNC(=O)c1ccc(-n2c(N(Cc3ccccc3)C3CN(C)C3)nc3c(c2=O)C[C@@H](C)N(C(=O)c2ccc(Br)c(C(F)(F)F)c2)C3)cc1 [Compound 13, (R)-4-(2-(benzyl(1-methylazetidin-3-yl)amino)-7-(4-bromo-3-(trifluoromethyl)benzoyl)-6-methyl-4-oxo-5,6,7,8-tetrahydropyrido[3,4-d]pyrimidin-3(4H)-yl)-N-methylbenzamide] here?
A: 0.5 to 5 µM

Q: What about the CC50 at 3 days [1] of the same compound?
A: 27 µM

Q: What does the source list for CNC(=O)c1ccc(-n2c(-n3ccc(CC(C)C)n3)nc3c(c2=O)C[C@@H](C)N(C(=O)c2ccc(Br)c(C(F)(F)F)c2)C3)cc1 [Compound 14]?
A: EC50 (HBV; [2]): < 0.05 µM; CC50 at 3 days [1]: > 50 µM

Q: For CCc1ccn(-c2nc3c(c(=O)n2-c2ccc(C(=O)NC)cc2)C[C@@H](C)N(C(=O)c2ccc(Br)c(C(F)(F)F)c2)C3)n1 [Compound 15], which EC50 (HBV; [2]) is on record?
A: < 0.05 µM

Q: And the CC50 at 3 days [1]?
A: > 50 µM

Q: Which results are given for CNC(=O)c1ccc(-n2c(-n3cc(CC(C)C)cn3)nc3c(c2=O)C[C@@H](C)N(C(=O)c2ccc(Br)c(C(F)(F)F)c2)C3)cc1 [Compound 16]?
A: EC50 (HBV; [2]): 0.05 to 0.5 µM; CC50 at 3 days [1]: > 50 µM

Q: Which EC50 (HBV; [2]) does the source give for CNC(=O)c1ccc(-n2c(C3CCN(C(=O)OC(C)(C)C)C3)nc3c(c2=O)CC(C)N(C(=O)c2ccc(Br)c(C(F)(F)F)c2)C3)cc1 (stereo not drawn) [Compound 17, t-butyl 3-(7-(4-bromo-3-(trifluoromethyl)benzoyl)-6-methyl-3-(4-(methylcarbamoyl)phenyl)-4-oxo-3,4,5,6,7,8-hexahydropyrido[3,4-d]pyrimidin-2-yl)pyrrolidine-1-carboxylate] here?
A: 0.05 to 0.5 µM

Q: What about the CC50 at 3 days [1] of the same compound?
A: 24.2 µM

Q: For CCN1CCC(c2nc3c(c(=O)n2-c2ccc(C(=O)NC)cc2)CC(C)N(C(=O)c2ccc(Br)c(C(F)(F)F)c2)C3)C1 (stereo not drawn) [Compound 18, 4-(7-(4-bromo-3-(trifluoromethyl)benzoyl)-2-(1-ethylpyrrolidin-3-yl)-6-methyl-4-oxo-5,6,7,8-tetrahydropyrido[3,4-d]pyrimidin-3(4H)-yl)-N-methylbenzamide], which EC50 (HBV; [2]) is on record?
A: > 5 µM

Q: And the CC50 at 3 days [1]?
A: > 50 µM

Q: With CNC(=O)c1ccc(-n2c(-n3ccc(C)n3)nc3c(c2=O)C[C@@H](C)N(C(=O)c2ccc(Br)c(C(F)(F)F)c2)C3)cc1 [Compound 19] as the compound, how does the EC50 (HBV; [2]) read?
A: < 0.05 µM

Q: And the CC50 at 3 days [1]?
A: > 50 µM
